Test systems include MOLT-4 leukemia; OVCAR-3 ovarian; CAKI-1 renal; HT29 colon; COLO 205 colon; SK-MEL-5 melanoma; SK-MEL-2 melanoma; SF-539 CNS; IGROV1 ovarian; SK-MEL-28 melanoma.
What all share (assay): NCI tumour cell line growth inhibition, 48 h

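All cell lines were grown in 96-well plates and treated with compound for 48 hours. GI50 marks 50% less growth. TGI is the concentration that stops growth completely.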

Consider `C[C@@H](Nc1nc(N[C@H](C)C(F)(F)F)nc(-c2cccc(Cl)n2)n1)C(F)(F)F`, for which the GI50 is more than 100 µM in the assay on MOLT-4 leukemia; 31.5 µM in the assay with OVCAR-3 ovarian; 24.9 µM in the assay on CAKI-1 renal; more than 100 µM in the assay on HT29 colon; more than 100 µM with COLO 205 colon; 51.2 µM with SK-MEL-5 melanoma. Further, the GI50 is 25.6 µM in the assay with SK-MEL-2 melanoma, 26.5 µM in the assay with SF-539 CNS, 52.5 µM in the assay on IGROV1 ovarian and 72.5 µM with SK-MEL-28 melanoma. The TGI in the assay on MOLT-4 leukemia is more than 100 µM; in the assay with OVCAR-3 ovarian, more than 100 µM; with CAKI-1 renal, 96.2 µM; in the assay with HT29 colon, more than 100 µM; in the assay with COLO 205 colon it was more than 100 µM; with SK-MEL-5 melanoma it was more than 100 µM. In addition, the TGI in the assay with SK-MEL-2 melanoma is more than 100 µM; with SF-539 CNS, 68.6 µM; with IGROV1 ovarian, more than 100 µM; with SK-MEL-28 melanoma, more than 100 µM.

On to `CCc1cccc(C(C)C)c1NC(=O)CC1Sc2ccccc2NC1=O` (stereo not given), for which the TGI in the assay with MOLT-4 leukemia is 92.1 µM; with OVCAR-3 ovarian it was more than 100 µM; in the assay with CAKI-1 renal, more than 100 µM; in the assay on HT29 colon it was more than 100 µM; in the assay on COLO 205 colon it was more than 100 µM; in the assay with SK-MEL-5 melanoma, more than 100 µM. Also, the TGI with SK-MEL-2 melanoma, with SF-539 CNS, with IGROV1 ovarian and in the assay on SK-MEL-28 melanoma was more than 100 µM in each case.

Consider `CC/C=C\C[C@H]1C/C=C2/C(=O)C=C[C@H]2C/C=C\CCCC(=O)O1`, for which the GI50 in the assay on MOLT-4 leukemia was 1.84 µM; with OVCAR-3 ovarian, 1.65 µM; in the assay with CAKI-1 renal it was 2.29 µM; in the assay on HT29 colon, 1.85 µM; with COLO 205 colon, 1.87 µM; in the assay on SK-MEL-5 melanoma it was 1.74 µM. The GI50 is 3.77 µM in the assay on SK-MEL-2 melanoma, 2.07 µM in the assay with SF-539 CNS, 2.66 µM with IGROV1 ovarian and 3.1 µM in the assay with SK-MEL-28 melanoma. Besides, the TGI in the assay with MOLT-4 leukemia was 25.1 µM; in the assay with OVCAR-3 ovarian it was 5.94 µM; with CAKI-1 renal, 8.23 µM; in the assay on HT29 colon, 6.15 µM; in the assay with COLO 205 colon it was 6.7 µM; with SK-MEL-5 melanoma it was 7.27 µM. Besides, the TGI is 12.6 µM in the assay on SK-MEL-2 melanoma, 8.16 µM in the assay with SF-539 CNS, 8.99 µM with IGROV1 ovarian and 11.4 µM in the assay with SK-MEL-28 melanoma.

With `Cc1cc(F)c(C(=O)Nc2cccc(-c3nncn3C(C)C)n2)cc1-n1cnc(C2CC2)c1`, the GI50 with MOLT-4 leukemia was 10.1 µM; in the assay on OVCAR-3 ovarian, 12.5 µM; with CAKI-1 renal, 10.5 µM; in the assay with HT29 colon, 18.2 µM; in the assay on COLO 205 colon, 4.2 µM; with SK-MEL-5 melanoma, 11.3 µM. Besides, the GI50 is 23.9 µM in the assay with SK-MEL-2 melanoma, 11.6 µM in the assay on SF-539 CNS, 6.89 µM in the assay with IGROV1 ovarian and 20.9 µM with SK-MEL-28 melanoma. For the same compound, the TGI was 54.2 µM in the assay with MOLT-4 leukemia; more than 100 µM with OVCAR-3 ovarian; more than 100 µM with CAKI-1 renal; more than 100 µM in the assay with HT29 colon; 21.3 µM with COLO 205 colon; 23.6 µM in the assay on SK-MEL-5 melanoma. Also, the TGI is 58.1 µM with SK-MEL-2 melanoma, 34.4 µM in the assay with SF-539 CNS, 61.7 µM in the assay on IGROV1 ovarian and 64.7 µM in the assay on SK-MEL-28 melanoma.

In the case of `CNC(=O)c1cc(Oc2ccc3nc(NC(=O)Nc4ccc(CN5CCOCC5)c(C(F)(F)F)c4)sc3c2)ccn1`, the GI50 in the assay on MOLT-4 leukemia is 2.57 µM; with OVCAR-3 ovarian, 1.79 µM; in the assay on CAKI-1 renal it was 2.05 µM; in the assay on HT29 colon, 2.14 µM; in the assay on COLO 205 colon, 2.1 µM; in the assay on SK-MEL-5 melanoma, 1.01 µM. Also, the GI50 in the assay on SK-MEL-2 melanoma was 2.74 µM; in the assay with SF-539 CNS it was 1.58 µM; in the assay on IGROV1 ovarian, 2.77 µM; with SK-MEL-28 melanoma it was 1.8 µM. For the same compound, the TGI in the assay with MOLT-4 leukemia is more than 100 µM; in the assay on OVCAR-3 ovarian, 4.16 µM; with CAKI-1 renal it was 6.83 µM; in the assay with HT29 colon, 5.5 µM; in the assay with COLO 205 colon, 4.58 µM; with SK-MEL-5 melanoma it was 2.22 µM. Also, the TGI with SK-MEL-2 melanoma is 7.81 µM; with SF-539 CNS, 3.37 µM; in the assay on IGROV1 ovarian, 10.5 µM; with SK-MEL-28 melanoma, 4.29 µM.

With `CCCCCC/C=C/C#CCCCCCCCC(=O)O`, the TGI in the assay with MOLT-4 leukemia, in the assay with OVCAR-3 ovarian, with CAKI-1 renal, in the assay on HT29 colon, in the assay on COLO 205 colon and in the assay on SK-MEL-5 melanoma was more than 100 µM throughout. The TGI in the assay on SK-MEL-2 melanoma, with SF-539 CNS, in the assay with IGROV1 ovarian and with SK-MEL-28 melanoma was more than 100 µM in each case.

As for `NC1=NN(c2ccccc2)C(=O)C1C(=O)C(=O)Nc1ccc(Cl)cc1` (stereo not given), the TGI in the assay with MOLT-4 leukemia, in the assay with OVCAR-3 ovarian, in the assay with CAKI-1 renal, in the assay on HT29 colon, in the assay with COLO 205 colon and in the assay with SK-MEL-5 melanoma was more than 100 µM throughout. Moreover, the TGI with SK-MEL-2 melanoma, in the assay on SF-539 CNS, in the assay with IGROV1 ovarian and in the assay on SK-MEL-28 melanoma was more than 100 µM in each case.

On to `C/C(=N\Nc1ccccc1)c1sc(-c2nc(C)c(/C(C)=N/Nc3ccccc3)s2)nc1C`, for which the TGI in the assay with MOLT-4 leukemia was more than 100 µM; in the assay with OVCAR-3 ovarian it was 59.9 µM; with CAKI-1 renal it was more than 89.4 µM; with HT29 colon it was 26.2 µM; with COLO 205 colon, 25.6 µM; in the assay with SK-MEL-5 melanoma it was more than 47.6 µM. The TGI in the assay on SK-MEL-2 melanoma was more than 100 µM; in the assay with SF-539 CNS it was more than 37.7 µM; in the assay on IGROV1 ovarian, more than 60.9 µM; with SK-MEL-28 melanoma it was more than 85.8 µM.

`CC1(C)OB(c2ccc(N(CCOS(C)(=O)=O)CCOS(C)(=O)=O)cc2)OC1(C)C`: the GI50 is 1.68 µM with MOLT-4 leukemia; 18.9 µM with OVCAR-3 ovarian; 1.79 µM in the assay with CAKI-1 renal; 30 µM in the assay with HT29 colon; 24.1 µM with COLO 205 colon; 16.2 µM with SK-MEL-5 melanoma. Further, the GI50 is 28.6 µM in the assay on SK-MEL-2 melanoma, 7.55 µM with SF-539 CNS, 4.89 µM with IGROV1 ovarian and 34 µM in the assay with SK-MEL-28 melanoma. Besides, the TGI in the assay with MOLT-4 leukemia is more than 72.7 µM; with OVCAR-3 ovarian, 45.3 µM; with CAKI-1 renal, 18.4 µM; with HT29 colon it was more than 100 µM; in the assay on COLO 205 colon it was more than 100 µM; in the assay with SK-MEL-5 melanoma, 38.2 µM. The TGI in the assay with SK-MEL-2 melanoma was more than 79.1 µM; in the assay on SF-539 CNS it was 29.9 µM; with IGROV1 ovarian, 35.4 µM; with SK-MEL-28 melanoma, more than 83.7 µM.

Consider `C[C@@H](C1CC[C@H]2[C@@H]3[C@@H]4O[C@@H]4[C@@]4(O)CC=CC(=O)[C@]4(C)[C@H]3C[C@H](O)[C@]12C)[C@H]1C[C@]2(C)O[C@]2(C)C(=O)O1` (stereo not given in full), for which the TGI with MOLT-4 leukemia, in the assay with OVCAR-3 ovarian, with CAKI-1 renal, in the assay on HT29 colon, with COLO 205 colon and in the assay with SK-MEL-5 melanoma was more than 100 µM throughout. In addition, the TGI in the assay on SK-MEL-2 melanoma, with SF-539 CNS, in the assay with IGROV1 ovarian and in the assay on SK-MEL-28 melanoma was more than 100 µM each time.

Regarding `Cc1cc(=O)oc2c(C3=NN(C=O)C(c4ccccc4)C3)c(O)ccc12` (stereo not given), the TGI in the assay on MOLT-4 leukemia is more than 100 µM; in the assay with OVCAR-3 ovarian it was more than 100 µM; in the assay with CAKI-1 renal, more than 94.9 µM; in the assay on HT29 colon it was more than 100 µM; in the assay with COLO 205 colon, more than 81.1 µM; with SK-MEL-5 melanoma it was more than 100 µM. The TGI is more than 100 µM in the assay on SK-MEL-2 melanoma, more than 94.4 µM with SF-539 CNS, more than 100 µM with IGROV1 ovarian and more than 100 µM with SK-MEL-28 melanoma.

For `CCCCCCCCCCC(=O)CCCCCCC(=O)O`, the TGI was found to be 36.8 µM in the assay on MOLT-4 leukemia; 40 µM with OVCAR-3 ovarian; 81.5 µM with CAKI-1 renal; 36.1 µM in the assay with HT29 colon; 29.8 µM with COLO 205 colon; 29.3 µM with SK-MEL-5 melanoma. The TGI is more than 100 µM with SK-MEL-2 melanoma, 43.8 µM with SF-539 CNS, 34.9 µM in the assay on IGROV1 ovarian and more than 100 µM with SK-MEL-28 melanoma.

Consider `O=C1/C(=C/c2cccnc2)SC(=S)N1Cc1ccco1`, for which the TGI is 14.3 µM in the assay on MOLT-4 leukemia; 10.4 µM with OVCAR-3 ovarian; 80.6 µM in the assay with CAKI-1 renal; more than 100 µM in the assay on HT29 colon; more than 42.2 µM in the assay on COLO 205 colon; more than 51 µM with SK-MEL-5 melanoma. The TGI is more than 27.2 µM in the assay with SK-MEL-2 melanoma, 6.12 µM with SF-539 CNS, more than 42.3 µM in the assay with IGROV1 ovarian and more than 100 µM in the assay with SK-MEL-28 melanoma.

(Values after PubChem BioAssay (NCI).)
